Measured values taken from US5221692A, “Ether linked and relatively nonpungent analogues of N-nonanoyl vanillylamide” (National Science Council, priority 1991, dated 1993).
Where two headings read alike, the source gives them in different places.

Assays:
[1] = system: right eye of male Wistar rats; assay: Wiping test (potency of pungency); format: in vivo
Description: The wiping test was performed as described by Szolcsanyl and Jansco-Gabor, Arzneim.-Forsch./Drug Res. 25, 1877 (1975). Briefly, solutions of CAP and its analogues were prepared as described above in successive tenfold dilutions. Each dilution was dropped into the right eye (vehicle being administered to the left eye as negative control) of male Wistar rats weighing 180-250 g, and the total number of protective movements (scratching, wiping of the eye with the foreleg) was counted for 30 min. Each concentration was applied to a total of 6 rats, and a dose-response curve were obtained form the mean value of each group. […] On the basis of the MPP values thus obtained, RPP (relative pain-producing potency) values were determined with respect to the pain-producing potency of CAP, which was taken as 1000.
^a) Methods are described by Szolcsanyi & JanscoGabor.

[2] = system: acetic acid-induced writhing in mice; assay: Acetic acid-induced writhing (antinociceptive test); format: in vivo, male mice (ddk strain); conditions: for ED50: Mus musculus, ip, 0.5 h, read-out: ED50 (95% C.L.); for Potency ratio: indomethacin 1.00
Description: Evaluation of antinociceptive effects Following the method described by Koster et al., Fed. proc. 18, 412 (1959), antinociceptive tests were carried out in male mice after intraperitoneal administration of NVA and its analogues. Briefly, four groups of eight male mice (ddk strain) weighing 18-22 g were brought to the laboratory on the day prior to study, and housed overnight with free access to food and water. Solutions of NVA and its analogues, as well as indomethacin were made up to 10% ethanol, 10% […] 80% saline, and then diluted with saline to the required concentrations. The test solution was administered by intraperitoneal injection with single dose of 0.2 mL (vehicle administered as control). 20 min after injection, 0.2 mL of 0.7% acetic acid was injected intraperitoneally to induce writhing. Following injection, the mice were placed […] acid injection, a writhe being defined as a sequence of arching of the back, followed by pelvic rotation and hind limb extension.
^a) Writhes were counted for 30 min after injection of acetic acid
^b) ED50 and 95% confidence limits were calculated by the
Litchfield and Wilcoxon method.

[3] = oral; cited from earlier work
[4] = relative to capsaicin, taken as 1000
[5] = intraperitoneal, mice, acetic acid 20 min after injection, writhes counted for 30 min, 95% confidence limits, Litchfield and Wilcoxon

SMILES	ED50 [2, 5] [mg/kg]	Potency ratio ([2]; intraperitoneal, mice)	other results
COc1cc(CNC(=O)CCCC/C=C/C(C)C)ccc1O [Capsaicin, trans-8-methyl-N-vanillyl-6-nonenamide]	0.07	15.71	MPP (Moderate pain-producing potency) ([1]; concentration inducing 32 scratchings, eye instillation, rats, 30 min): 90 µg/mL; median response (number of scratchings) ([1]; counted for 30 min, eye instillation, rats): 32 scratchings; RPP (Relative pain-producing potency) [1, 4]: 1000
CCCCCCCCC(=O)NCc1ccc(OC(=O)CCC(=O)O)c(OC)c1 [Compound 3, N-(4-o-succinicacid-3-methoxybenzyl)-nonamide]	0.06	18.33	pungency (in words) ([1]; rat, in vivo): nearly equivalent to that of NVA and CAP; MPP (Moderate pain-producing potency) ([1]; rat, in vivo, 30 min): 270 µg/mL; RPP (Relative pain-producing potency) ([1]; rat, in vivo, 30 min): 333
CCCCCCCCC(=O)NCc1ccc(OCC(=O)O)c(OC)c1 [Compound 5]	0.04	27.50	antinociceptive effect (in words) ([2]; intraperitoneal, mice): the most potent in its antinociceptive effect
COc1ccc2c(c1)c(CC(=O)O)c(C)n2C(=O)c1ccc(Cl)cc1 [Indomethacin, reference compound]	1.1		
CCCCCCCCC(=O)NCc1ccc(O)c(OC)c1 [NVA, N-nonanoyl vanillylamide]		13.75	RPP (Relative pain-producing potency) [1, 4]: 409; ED50 [2]: 0.08 mg/kg
CCCCCCCCC(=O)NCc1ccc(OCC(O)CO)c(OC)c1 (stereo not shown) [Compound 4, N-(4-o-glycerol-3-methoxybenzyl)-nonamide]	0.09	12.22	
CCCCCCCCC(=O)NCc1ccc(OCCO)c(OC)c1 [Compound 6, N-(4-o-glycol-3-methoxybenzyl)-nonamide]	0.14	7.86	
CCCCCCCCC=CCCCCCCCC(=O)NCc1ccc(O)c(OC)c1 [olvanil, N-vanillyl-9-octadecenamide]			ED50 [3]: 170 mg/kg
